Active and inactive are the calls of the source. The calls are words filed in the database; no cut-off is given here.
How the values were obtained:
[1] = molecular target: T1, Sialidase (Clostridium perfringens) (UniProt P10481); assay: Inhibition of Clostridium perfringens neuraminidase at 100 ug/mL
T1 sequence (whole entry): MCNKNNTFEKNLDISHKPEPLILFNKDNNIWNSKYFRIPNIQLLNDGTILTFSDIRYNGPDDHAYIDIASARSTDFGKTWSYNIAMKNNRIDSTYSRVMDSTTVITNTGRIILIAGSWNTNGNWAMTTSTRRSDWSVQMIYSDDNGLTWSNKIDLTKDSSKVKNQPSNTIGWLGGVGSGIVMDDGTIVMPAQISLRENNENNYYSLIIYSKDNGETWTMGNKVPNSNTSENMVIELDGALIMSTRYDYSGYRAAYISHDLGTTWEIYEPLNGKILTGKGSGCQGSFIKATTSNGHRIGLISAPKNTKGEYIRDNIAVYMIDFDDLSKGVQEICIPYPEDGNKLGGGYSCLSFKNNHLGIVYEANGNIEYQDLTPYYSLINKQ

[2] = molecular target: T2, Sialidase (Clostridium perfringens, UniProt P10481); assay: Inhibition of Clostridium perfringens neuraminidase
T2 sequence (P10481 whole entry): T1 sequence (whole entry)

Structure (SMILES) | Activity [1] | IC50 [2]
COC(=O)[C@H]1O[C@@H](O[C@H]2[C@H](O)[C@@H](O)[C@H](O[C@H]3CC[C@]4(C)C5=C(CC[C@H]4C3(C)C)[C@]3(C(=O)OC)CC[C@H]([C@H](C)CCC=C(C)C)[C@@]3(C)CC5)O[C@@H]2C(=O)OC)[C@H](O)[C@@H](O[C@@H]2OC[C@H](O)[C@H](O)[C@H]2O)[C@H]1O | inactive | –
CC(C)=CCC[C@@H](C)[C@H]1CC[C@@]2(C(=O)O)C3=C(CC[C@]12C)[C@@]1(C)CC[C@H](O[C@@H]2O[C@H](C(=O)O)[C@@H](O[C@@H]4O[C@H](C(=O)O)[C@H](O)[C@H](O[C@@H]5OC[C@H](O)[C@H](O)[C@H]5O)[C@H]4O)[C@H](O)[C@H]2O)C(C)(C)[C@@H]1CC3 [NOBILOSIDE] | – | 0.489 µM
